Assays:
[1] = tested on: time-mated female Sprague-Dawley rats; assay: Developmental toxicity in the rat; format: in vivo
Excerpt: The safety of a use of a steroid sulfatase inhibitor according to the invention, measured by no or minor effects induced on foetus development during gestation in pregnant rat can be investigated as follows.
The effects of a steroid sulfatase inhibitor according to the invention (Estradiol Sulfamate or E2MATE) on the embryonic and foetal development of the rat was investigated when administered during the period of organogenesis (Days 6 to 17 of gestation). Four groups each of 20 time-mated female Sprague-Dawley rats were dosed with 0 (Control), 7.5, 22 or 60 μg/kg/day of Estardiol sulfamate from Day 6 to Day 17 of gestation. A further group of twenty females was dosed with ethinylestradiol at 80 μg/kg/day and acted as a positive control.
Clinical observations, bodyweight and food consumption were recorded and the progress and outcome of pregnancy was assessed on Day 20 of gestation. Foetal pathology to assess abnormalities and variations was carried out on all foetuses.

[2] = tested on: time-mated female New Zealand White rabbits; assay: Developmental toxicity in the rabbit; format: in vivo
Excerpt: The safety of a use of a steroid sulfatase inhibitor according to the invention, measured by no or minor effects induced on foetus development during gestation in pregnant rabbit can be investigated as follows.
The effects of a steroid sulfatase inhibitor according to the invention (Estradiol Sulfamate or E2MATE) on the embryonic and foetal development of the rabbit when administered during the period of organogenesis (Days 6 to 18 of gestation). Four groups each of between 20 to 25 time-mated female New Zealand White rabbits were dosed with 0 (Control), 5, 15 or 50 μg/kg/day from Day 6 to Day 18 of gestation. A further group of twenty females was administered with ethinylestradiol at 50 μg/kg/day and acted as a positive control. Clinical observations, bodyweight and food consumption were recorded and the progress and outcome of pregnancy was assessed on Day 28 of gestation. Foetal pathology to assess abnormalities and variations was carried out on all foetuses

[3] = Placental barrier crossing ability measurement (whole body autoradiography of 14C-labeled compound); format: in vivo, rat; conditions: for Passage of the placental barrier: compound and/or its main metabolite
Protocol: The ability of a steroid sulfatase inhibitor according to the invention to cross the placental barrier can be investigated as follows. This assay was performed with a steroid sulfatase inhibitor according to the invention (Estradiol Sulfamate or E2MATE) which is used for the treatment of symptoms related to estrogen deficiency in postmenopausal or hysterectomized women.
Six female albino rats received a single intravenous bolus dose of 0.47 mg ^14C-labeled Estradiol Sulfamate per kg. Six female albino, 3 pregnant albino and 4 female pigmented rats received 1 mg ^14C-labeled Estradiol Sulfamate per kg as an intragastic dose. […] Animals were deeply frozen in a mixture of hexane and dry ice and embedded into a block of carboxymethyl cellulose, which was frozen and stored at approximately −20° C. External standards were used for semi-quantitative evaluation of radioluminograms and were prepared by spiking an erythrocyte concentrate with different concentrations of ^14C-radioactivity. Pores were drilled into a separate block of carboxymethyl cellulose, filled with external standards and frozen at approximately −20° C. Whole body sagittal sections of 50 μm thickness were taken through each animal and the external standard block using a Leica CM 3600 cryomicrotome. After freeze drying of the sections in the cryostat for a minimum time of 48 hours, they were exposed to an Imaging Plate (IP) for a period of 4 to 24 hours and the IP was scanned using the bioimaging analyzer BAS 2000. For evaluation, the external standard samples were related to a colored scale using the software AIDA (Advanced Image Data Analysis, version 3.10, Raytest, Germany), each color representing a specific radioactive concentration (MBq). The different tissues were compared semi-quantitatively to the external standards and concentration ranges were determined.

[4] = dosed Day 6 to Day 17 of gestation
[5] = dosed Day 6 to Day 18 of gestation
[6] = 1 h post-dose, 1 mg/kg i.g., pregnant albino rats, semi-quantitative

Row | Compound | Effects in foetuses / teratogenic action ([1]; at about 22 μg/kg/day) | No Observed Adverse Effect Level (NOAEL) for foetal development [1, 4] | No Observed Effect Level (NOEL) for female toxicity [1, 4] | Observed female toxicity at the higher doses ([1]; doses above 7.5 μg/kg/day (22 or 60 μg/kg/day)) | No Observed Adverse Effect Level (NOAEL) for embryofoetal development [2, 5] | No Observed Adverse Effect Level for maternal toxicity during the period of organogenesis [2, 5] | Dosage-related maternal effects at higher doses ([2]; doses above 5 μg/kg/day (15 or 50 μg/kg/day)) | Tolerance by the females compared with ethinylestradiol (positive control) ([2]; ethinylestradiol at 50 μg/kg/day) | Distribution of radiolabel in pregnant albino animals compared to female albino rats ([3]; 1 mg/kg 14C-labeled, intragastric, pregnant (18 day p.c.) albino rats) | 14C-concentrations in pregnant animals versus non-pregnant animals ([3]; 1 h post-dose, 1 mg/kg i.g.) | 14C-radiolabel concentration in foetal liver [3, 6] | 14C-radiolabel concentration in foetal membranes [3, 6] | 14C-radiolabel concentration in mammary gland [3, 6] | 14C-radiolabel concentration in placenta [3, 6] | 14C-radiolabel concentration in the foetus [3, 6] | 14C-concentrations (foetus, foetal liver, placenta, mammary gland, foetal membranes) ([3]; 7 h and 1 day post dose, 1 mg/kg i.g., pregnant albino rats) | general radiolabel concentration in pregnant animals versus non-pregnant animals ([3]; after 7 h, 1 mg/kg i.g.) | Passage of the placental barrier ([3]; pregnant albino rats)
1 | C[C@]12CC[C@@H]3c4ccc(OS(N)(=O)=O)cc4CC[C@H]3[C@@H]1CC[C@@H]2O [Estradiol Sulfamate] | some minor effects in foetuses but no teratogenic action | about 22 μg/kg/day | about 7.5 μg/kg/day | limited to reduced food consumption and an associated reduction in bodyweight gain during gestation | about 15 μg/kg/day | about 5 μg/kg/day | limited to lower bodyweight gain and food consumption | generally better tolerated | similar | slightly higher | high range | medium | medium | high range | high range | between the higher low and the lower high range | lower | passed the placental barrier reversibly
2 | CC12CCC3c4ccc(OS(N)(=O)=O)cc4CCC3C1CCC2=O (stereo not shown) [Estrone Sulfamate] |  |  |  |  |  |  |  |  |  |  |  |  |  |  |  |  |  | passed the placental barrier reversibly
